Results on one molecule are retold here after patent US10894817B2, “Fatty acid modified urocortin-2 analogs for the treatment of diabetes and chronic kidney disease” (priority 2016, dated 2021).

The nature of data set [1]: in vivo. The conditions noted are these: male, Sprague Dawley, rat, sc; for half-life: T1/2.
Method: (§1) Plasma concentrations of compounds were determined by LC/MS methods. Each method measured the intact compound; peptide plus linked time extension. For each assay, the compound and an analog, used as an internal standard (IS), were extracted from 100% mouse, rat or monkey plasma (25 μl) using acetonitrile. Two distinct layers were formed upon centrifugation with the compound and the IS located in the supernatant layer. An aliquot of the supernatant (80 μl) was transferred to a Thermo Protein Precipitation Plate with water (150 μl) and formic acid (25 μl) followed by mixing. A final 31% acetonitrile in 10% formic acid sample (10 μl) was loaded onto a Supelco Analytical Discovery BIO Wide Pore C5-3 column (5 cm×1 mm, 3 μm). The column effluent was directed into a Thermo Q-Exactive mass spectrometer for detection and quantitation.
Male Sprague Dawley rats were administered a single subcutaneous dose (50 or 150 nmol/kg) of a compound described herein in 20 mM Tris-HCl Tris Buffer (pH 8) at a volume of 0.26 or 0.77 mL/kg.
Data set [2] in a line: Pharmacokinetics, single subcutaneous dose, monkeys.
Method: as §1
(§2) Male Cynomolgus monkeys were administered a single subcutaneous dose or intravenous dose (96.4 nmol/kg) of a compound described herein in 20 mM Tris-HCl Buffer (pH 7) at a volume of 1 mL/kg. Blood was collected from each animal at 2, 6, 24, 48, 72, 96, 168, 240, 336, 408, and 504 hours postdose for pharmacokinetic characterization.
(§3) Male Cynomolgus monkeys were also administered a single subcutaneous dose (50 nmol/kg) of a compound described herein in 20 mM Tris-HCl Buffer (pH 8) at a volume of 0.26 mL/kg. Blood was collected from each animal at 3, 6, 12, 24, 48, 72, 96, 120, 168, 192, 240, 336, 408, and 504 hours postdose for pharmacokinetic characterization.
A short description of data set [3]: Pharmacokinetics, single subcutaneous dose, mice. The conditions noted are these: male, CD-1, mouse, plasma, sc, 350 nmol/kg.
Method: as §1
Male CD-1 mice were administered a single subcutaneous dose (350, 386 or 388 nmol/kg) of a compound described herein in 20 mM Tris-HCl Tris Buffer (pH 7 or 8) at a volume of 0.05 or 0.06 mL/animal. Blood was collected at 6, 12, 24, 48, 72, 96, 120 and 168 hours postdose for pharmacokinetic characterization (101).
Data set [4] is described as follows: in vivo. As to conditions: male, CD-1, mouse, sc, 350 nmol/kg.
The target in data set [5] is T1, human CRHR1 (Homo sapiens, UniProt P34998).
T1 construct: which expresses endogenous human CRHR1; host or cells: Y79 human retinoblastoma cells
T1 sequence (P34998 24-415): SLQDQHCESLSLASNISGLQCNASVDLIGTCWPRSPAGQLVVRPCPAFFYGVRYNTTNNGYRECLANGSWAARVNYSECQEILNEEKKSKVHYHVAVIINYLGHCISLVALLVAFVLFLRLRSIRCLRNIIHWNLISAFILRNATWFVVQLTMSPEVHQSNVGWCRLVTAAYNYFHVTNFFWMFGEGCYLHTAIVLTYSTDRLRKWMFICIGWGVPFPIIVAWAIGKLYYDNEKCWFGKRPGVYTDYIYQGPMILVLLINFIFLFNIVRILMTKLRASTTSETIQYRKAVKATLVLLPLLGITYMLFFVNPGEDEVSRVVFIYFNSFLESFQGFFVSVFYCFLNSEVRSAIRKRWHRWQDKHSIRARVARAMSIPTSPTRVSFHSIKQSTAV
Kind of data set: human CRHR1 cell-based cAMP assay (Y79 cells). The conditions noted are these: Y79 cells with endogenous human CRHR1, mean ± SEM of runs, read-out: hCRHR1 Average EC50. The protocol: CRHR agonistic activity is measured in a cell-based cAMP assay. Serial dilutions of the test peptides are made in assay buffer containing Hank's Balanced Salt Solution (HBSS, without phenol red) supplemented with 20 mM HEPES and 0.05% lactalbumin enzymatic hydrolysate (LAH) (“assay buffer”). The highest concentration that is used starts from 1 μM in the human CRHR2b, whereas 100 μM starting concentration is used in the human CRHR1 assay. A one to three dilution of the test peptides is used in both assays.
The human Retinoblastoma cell line Y79 (ATCC #HTB-18), which expresses endogenous human CRHR1, is used in the human CRHR1 assay. The cells are grown in RPMI 1640 (Hyclone, #SH30255) containing 20% fetal bovine serum and 10 mM HEPES, in suspension culture. Cells are centrifuged to remove the culture media and washed once in HBSS supplemented with 20 mM HEPES. The cells are resuspended in the assay buffer and 20,000 cells are used per treatment in the human CRHR1 assay.
The cells are dispensed into Costar 96-well black polystyrene half area EIA/RIA plates (Corning Incorporated, Corning, N.Y.) followed by the addition of the diluted peptides, each at a volume of 20 μL. The agonist induced cAMP levels are detected using a HTRF cAMP Dynamic 2 kit (CisBio, Bedford, Mass.). After incubation at 37° C. for 30 min, the assay is stopped by cell lysis via the addition of 20 μL of d2-labeled cAMP and followed by 20 μL of cryptate-labeled anti-cAMP antibody, as described by the manufacturer. Cellular cAMP (as a result of agonist stimulation) competes with the d2-labeled cAMP for binding to the antibody. HTRF detection is performed on an Envision plate reader (Perkin Elmer Life and Analytical Sciences, Waltham, Mass.) by measuring ratiometric emission at 620 and 665 nm after excitation at 320 nm.
The data are converted to picomoles of cAMP using a standard curve obtained from the same assay performed with varying concentrations of unlabeled cAMP. Percent of the maximum activation of the cells is calculated using converted picomole cAMP data by comparing to the amount of cAMP produced by 1 μM human UCN2 for the human CRHR2b or 1 μM human UCN1 for the human CRHR1 assay. The data are analyzed using a Curve Fitting Tool to calculate ED50. Numeric values shown below in Table 1 represent the mean of multiple runs (number of runs shown in parentheses) following the mean value±SEM.

The nature of data set [6]: in vivo. As to conditions: male, cynomolgus monkey, sc, 50 nmol/kg.
Method: as §1, §2, §3
The mark [7] stands for this setting: male Cynomolgus monkeys, single 50 nmol/kg s.c., individual animal.
Setting [8] is: male, cynomolgus monkey, plasma, sc, 50 nmol/kg.

The structures appear in SMILES notation. “And” between values parts separate entries of the source, which are not always exact repeats. Equal values may be shown once. Starred links: 1 amine or outer side, 2 acyl side, 3 side chain; linkers in the order of their positions; H or OH if unused. Non-standard residues stand in square brackets, D forms with d. Residues, ends and D or L forms follow the SMILES beside them. Groups on a side chain read outwards from the residue. *: point of attachment. C20 diacid = O=C(O)CCCCCCCCCCCCCCCCCCC(=O)*; γGlu = O=C(O)[C@H](CCC(=O)[*:2])N[*:1]; NMeI = CC[C@H](C)[C@H](NC)C(=O)O; AEEA = NCCOCCOCC(=O)O

As to `CC[C@H](C)[C@H](NC)C(=O)N[C@H](C(=O)N[C@@H](CC(C)C)C(=O)N[C@@H](CO)C(=O)N[C@@H](CC(C)C)C(=O)N[C@@H](CC(=O)O)C(=O)N[C@H](C(=O)N1CCC[C@H]1C(=O)N[C@H](C(=O)NCC(=O)N[C@@H](CC(C)C)C(=O)N[C@@H](CC(C)C)C(=O)N[C@@H](CCC(N)=O)C(=O)N[C@H](C(=O)N[C@@H](CC(C)C)C(=O)N[C@@H](CC(C)C)C(=O)N[C@@H](CCC(=O)O)C(=O)N[C@@H](CCC(N)=O)C(=O)N[C@@H](CCC(=O)O)C(=O)N[C@@H](CCCCN)C(=O)N[C@@H](CCC(N)=O)C(=O)N[C@@H](CCC(=O)O)C(=O)N[C@@H](CCCCN)C(=O)N[C@@H](CCC(=O)O)C(=O)N[C@@H](CCCCN)C(=O)N[C@@H](CCC(N)=O)C(=O)N[C@@H](CCC(N)=O)C(=O)N[C@@H](C)C(=O)N[C@@H](CCCCNC(=O)COCCOCCNC(=O)COCCOCCNC(=O)CC[C@H](NC(=O)CC[C@H](NC(=O)CCCCCCCCCCCCCCCCCCC(=O)O)C(=O)O)C(=O)O)C(=O)N[C@H](C(=O)N[C@@H](CC(N)=O)C(=O)N[C@@H](C)C(=O)N[C@@H](CCC(N)=O)C(=O)N[C@H](C(=O)N[C@@H](CC(C)C)C(=O)N[C@@H](C)C(=O)N[C@@H](CCC(N)=O)C(=O)N[C@H](C(N)=O)C(C)C)[C@@H](C)CC)[C@@H](C)O)[C@@H](C)CC)[C@@H](C)CC)C(C)C)C(C)C` [Example 4] (H-[NMeI]VLSLDVPIGLLQILLEQEKQEKEKQQAK([AEEA-AEEA-γGlu-γGlu-C20 diacid])TNAQILAQV-NH2), the CL/F in data set [1] (50 nmol/kg) was 0.107 mL/min/kg; in data set [1] (150 nmol/kg), 0.113 mL/min/kg; in data set [4] it was 0.113 mL/min/kg; in data set [6] (CL/F), 0.0162 mL/min/kg. Also, the half-life in data set [1] (50 nmol/kg) was 19 h; in data set [1] (150 nmol/kg), 21 h; in data set [4] it was 18 h; in data set [6] (T1/2), 79 h. For the same molecule, the AUC(0-inf) in data set [2] (setting [7]) is 51.829 µM·h and 46.654 µM·h; in data set [2] (setting [8]), 49.2 µM·h; in data set [3], 51.6 µM·h. For the same molecule, the Cmax in data set [2] (setting [7]) is 333 nM and 291 nM; in data set [2] (setting [8]) it was 312 nM; in data set [3] it was 1160 nM. Moreover, the Tmax in data set [2] (male, cynomolgus monkey, plasma, sc, 50 nmol/kg, male Cynomolgus monkeys, single 50 nmol/kg s.c., Mean) is 36 h; in data set [2] (male, cynomolgus monkey, plasma, sc, 50 nmol/kg, male Cynomolgus monkeys, single 50 nmol/kg s.c., individual animal), 48 h; in data set [3], 24 h. Besides, the EC50 in data set [5] was above 100 µM.

As usually defined, the CL/F is clearance divided by bioavailability, as obtained after extravascular dosing. As usually defined, the half-life is how long it takes for the measured level to halve. The low end stands for fast loss, the high end for slow loss. What is called AUC(0-inf) is the area under the concentration-time curve extrapolated to infinity. A lower AUC(0-inf) goes with low exposure. Broadly, the Cmax is the peak of the concentration-time curve. One may read the Tmax as the time at which the peak concentration occurs. What is called EC50 is the concentration that produces a half-maximal response.
